# Assay results published in patent publication US7074789B2, “Kinase inhibitors” (Amgen Inc., priority 1999, dated 2006).
# Like-named read-outs stand apart in the source and are kept apart here.
# Experiments:
# Type in all cases: biochemical
# Lck = biological target: T1, Lck (Homo sapiens, UniProt P06239); assay: Kinase inhibition assay (33P transfer), Lck; conditions: read-out: Lck-1
# T1 construct: Kinases are expressed as either kinase domains or full length constructs; made in house
# Procedure, shortened: (§1)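 Measured by scintillation: radiolabelled phosphate added by tagged recombinant kinases to poly(Glu,Tyr) 4:1 or poly(Arg,Ser) 3:1 attached to microtiter wells, counted once free label was washed away with 0.5% phosphoric acid.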
# Zap-70 = biological target: T2, Zap-70 (Homo sapiens, UniProt P43403); assay: Kinase inhibition assay (33P transfer), Zap-70; conditions: read-out: Zap-1
# T2 construct: Kinases are expressed as either kinase domains or full length constructs; made in house
# T2 sequence (P43403 1-619): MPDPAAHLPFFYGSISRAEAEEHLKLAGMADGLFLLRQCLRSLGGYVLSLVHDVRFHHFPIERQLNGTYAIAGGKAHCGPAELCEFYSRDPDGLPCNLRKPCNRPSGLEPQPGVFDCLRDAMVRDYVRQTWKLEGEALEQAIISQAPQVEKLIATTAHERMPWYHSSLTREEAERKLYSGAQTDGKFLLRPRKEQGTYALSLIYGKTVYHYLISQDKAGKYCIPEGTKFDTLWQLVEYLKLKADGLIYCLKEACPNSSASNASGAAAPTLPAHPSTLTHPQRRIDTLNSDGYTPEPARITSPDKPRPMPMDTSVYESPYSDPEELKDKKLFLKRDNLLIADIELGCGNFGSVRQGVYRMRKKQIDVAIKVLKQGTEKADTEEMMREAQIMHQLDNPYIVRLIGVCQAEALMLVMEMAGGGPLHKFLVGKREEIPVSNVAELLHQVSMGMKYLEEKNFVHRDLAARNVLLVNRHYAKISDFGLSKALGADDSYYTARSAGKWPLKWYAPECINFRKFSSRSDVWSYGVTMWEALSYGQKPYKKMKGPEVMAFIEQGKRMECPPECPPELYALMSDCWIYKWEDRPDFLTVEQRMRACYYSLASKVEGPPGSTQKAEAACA
# Procedure, shortened: as §1
# Itk = biological target: T3, Itk (Homo sapiens, UniProt Q08881); assay: Kinase inhibition assay (33P transfer), Itk; conditions: read-out: Itk-1
# T3 construct: Kinases are expressed as either kinase domains or full length constructs; made in house
# T3 sequence (Q08881 1-620): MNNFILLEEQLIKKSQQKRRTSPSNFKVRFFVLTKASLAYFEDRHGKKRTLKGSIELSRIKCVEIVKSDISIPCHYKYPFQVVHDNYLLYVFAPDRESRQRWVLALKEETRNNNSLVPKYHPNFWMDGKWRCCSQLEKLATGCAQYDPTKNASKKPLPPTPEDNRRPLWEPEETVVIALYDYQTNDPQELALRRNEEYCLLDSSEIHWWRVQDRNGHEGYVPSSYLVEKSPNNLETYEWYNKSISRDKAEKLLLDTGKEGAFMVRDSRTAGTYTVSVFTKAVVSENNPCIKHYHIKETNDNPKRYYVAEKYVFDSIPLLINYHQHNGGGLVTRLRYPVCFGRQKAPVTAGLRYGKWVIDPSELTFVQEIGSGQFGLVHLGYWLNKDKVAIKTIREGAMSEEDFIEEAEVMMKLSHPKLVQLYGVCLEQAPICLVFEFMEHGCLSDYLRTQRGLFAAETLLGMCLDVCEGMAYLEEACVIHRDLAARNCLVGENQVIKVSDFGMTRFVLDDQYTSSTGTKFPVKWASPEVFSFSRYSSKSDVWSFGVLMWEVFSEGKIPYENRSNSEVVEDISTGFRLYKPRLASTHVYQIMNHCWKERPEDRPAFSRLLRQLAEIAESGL
# Procedure, shortened: (§2)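 Steps: coat wells with poly(Glu,Tyr) 4:1 or poly(Arg,Ser) 3:1; add purified kinase, [33P]ATP and inhibitor; incubate; wash with 0.5% phosphoric acid; add liquid scintillant; count. IC50 corresponds to half-maximal reduction of bound 33P.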
# EGFR = biological target: T4, EGFR (Homo sapiens, UniProt P00533); assay: Kinase inhibition assay (33P transfer), EGFR; conditions: Table 2, kinase inhibition class; read-out: EGFR-1
# T4 construct: Kinases are expressed as either kinase domains or full length constructs; made in house
# T4 sequence (P00533 25-1210, species assumed): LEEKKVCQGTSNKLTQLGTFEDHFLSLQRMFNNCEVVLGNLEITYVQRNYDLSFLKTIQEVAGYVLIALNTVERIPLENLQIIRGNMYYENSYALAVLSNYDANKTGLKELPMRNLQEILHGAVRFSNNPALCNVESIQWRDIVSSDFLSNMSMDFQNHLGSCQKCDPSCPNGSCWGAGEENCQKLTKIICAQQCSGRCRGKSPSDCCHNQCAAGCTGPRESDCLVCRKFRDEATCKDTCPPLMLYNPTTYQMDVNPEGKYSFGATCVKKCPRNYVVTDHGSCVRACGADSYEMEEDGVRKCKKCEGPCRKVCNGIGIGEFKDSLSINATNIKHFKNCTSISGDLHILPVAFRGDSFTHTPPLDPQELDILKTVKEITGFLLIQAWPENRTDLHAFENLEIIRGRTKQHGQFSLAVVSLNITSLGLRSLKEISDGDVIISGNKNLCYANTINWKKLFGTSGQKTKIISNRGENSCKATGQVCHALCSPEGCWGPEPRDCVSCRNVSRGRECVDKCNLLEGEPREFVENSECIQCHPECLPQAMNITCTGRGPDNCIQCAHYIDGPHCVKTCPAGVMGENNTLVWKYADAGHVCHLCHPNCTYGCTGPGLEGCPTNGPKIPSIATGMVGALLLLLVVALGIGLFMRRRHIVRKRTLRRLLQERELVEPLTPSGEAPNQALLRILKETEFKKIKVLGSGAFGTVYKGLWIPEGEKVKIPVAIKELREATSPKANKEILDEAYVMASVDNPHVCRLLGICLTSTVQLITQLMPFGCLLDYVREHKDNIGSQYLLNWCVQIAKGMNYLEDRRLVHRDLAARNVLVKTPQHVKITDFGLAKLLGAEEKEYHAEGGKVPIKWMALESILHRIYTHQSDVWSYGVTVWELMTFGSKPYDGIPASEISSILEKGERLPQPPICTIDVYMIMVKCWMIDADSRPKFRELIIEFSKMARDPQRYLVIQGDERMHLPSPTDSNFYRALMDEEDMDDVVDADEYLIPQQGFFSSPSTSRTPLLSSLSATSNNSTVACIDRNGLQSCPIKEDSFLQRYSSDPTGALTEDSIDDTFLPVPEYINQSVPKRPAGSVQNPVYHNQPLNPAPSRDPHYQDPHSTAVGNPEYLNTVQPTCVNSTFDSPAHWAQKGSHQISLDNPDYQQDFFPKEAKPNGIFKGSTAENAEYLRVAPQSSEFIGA
# Procedure, shortened: as §2
# Kdr = biological target: T5, Kdr (Homo sapiens, UniProt P35968); assay: Kinase inhibition assay (33P transfer), Kdr; conditions: read-out: KDR-1
# T5 construct: Kinases are expressed as either kinase domains or full length constructs; made in house
# T5 sequence (P35968 20-1356, species assumed): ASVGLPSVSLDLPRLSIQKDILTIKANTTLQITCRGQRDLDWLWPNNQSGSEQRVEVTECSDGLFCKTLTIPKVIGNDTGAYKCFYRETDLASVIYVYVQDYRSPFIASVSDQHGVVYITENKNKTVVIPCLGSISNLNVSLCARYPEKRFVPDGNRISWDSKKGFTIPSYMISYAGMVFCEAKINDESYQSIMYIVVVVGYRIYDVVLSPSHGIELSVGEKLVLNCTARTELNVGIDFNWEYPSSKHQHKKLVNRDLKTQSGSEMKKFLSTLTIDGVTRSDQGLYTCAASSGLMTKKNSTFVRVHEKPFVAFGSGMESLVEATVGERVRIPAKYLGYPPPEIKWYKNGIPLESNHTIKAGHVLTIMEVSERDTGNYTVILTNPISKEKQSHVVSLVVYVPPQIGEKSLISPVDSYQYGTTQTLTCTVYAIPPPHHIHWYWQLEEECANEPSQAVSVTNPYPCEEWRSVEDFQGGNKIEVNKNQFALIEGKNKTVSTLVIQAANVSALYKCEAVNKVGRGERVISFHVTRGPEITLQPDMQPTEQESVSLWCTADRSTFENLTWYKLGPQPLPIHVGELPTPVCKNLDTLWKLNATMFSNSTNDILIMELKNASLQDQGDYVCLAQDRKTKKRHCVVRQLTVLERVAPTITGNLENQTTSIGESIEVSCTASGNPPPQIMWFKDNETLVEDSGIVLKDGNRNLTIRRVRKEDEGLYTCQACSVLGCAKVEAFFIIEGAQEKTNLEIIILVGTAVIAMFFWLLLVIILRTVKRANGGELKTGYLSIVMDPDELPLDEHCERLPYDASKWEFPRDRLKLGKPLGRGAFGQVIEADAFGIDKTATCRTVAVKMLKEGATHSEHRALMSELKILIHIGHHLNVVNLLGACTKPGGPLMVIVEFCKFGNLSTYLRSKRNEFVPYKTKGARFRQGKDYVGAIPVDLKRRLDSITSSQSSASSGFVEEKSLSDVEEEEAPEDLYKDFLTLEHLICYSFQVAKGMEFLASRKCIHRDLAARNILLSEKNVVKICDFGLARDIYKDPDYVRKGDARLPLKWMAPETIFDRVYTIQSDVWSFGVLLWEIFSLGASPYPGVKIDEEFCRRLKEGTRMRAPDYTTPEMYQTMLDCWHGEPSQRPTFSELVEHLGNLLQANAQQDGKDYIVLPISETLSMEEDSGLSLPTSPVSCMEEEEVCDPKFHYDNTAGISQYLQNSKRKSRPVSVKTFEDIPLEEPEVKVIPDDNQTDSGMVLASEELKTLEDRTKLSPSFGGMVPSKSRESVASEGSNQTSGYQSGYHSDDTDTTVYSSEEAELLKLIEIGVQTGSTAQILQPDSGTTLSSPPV
# Procedure, shortened: as §1
# Tek = biological target: T6, Tek (Homo sapiens, UniProt Q02763); assay: Kinase inhibition assay (33P transfer), Tek; conditions: read-out: Tek-1
# T6 construct: Kinases are expressed as either kinase domains or full length constructs; made in house
# Description: The inhibitor compounds described herein are screened in the following manner. Kinases suitable for use in the following protocol to determine kinase activity of the compounds described herein include, -but are not limited to: Lck, Lyn, Src, Fyn, Syk, Zap-70, Itk, Tec, Btk, EGFR, ErbB2, Kdr, Flt-1, Flt-3, Tek, c-Met, InsR, and AKT.
# Kinases are expressed as either kinase domains or full length constructs fused to glutathione S-transferase (GST) or polyHistidine tagged fusion proteins in either E. colior Baculovirus-High Five expression systems. They are purified to near homogeneity by affinity chromatography essentially as previously described (Lehr et al., 1996; Gish et al., 1995). In some instances, kinases are co-expressed or mixed with purified or partially purified regulatory polypeptides prior to measurement of activity.
# Kinase activity and inhibition are measured essentially by established protocols (Braunwalder et al., 1996). Briefly, The transfer of ^33PO4 from ATP to the synthetic substrates poly(Glu, Tyr) 4:1 or poly(Arg, Ser) 3:1 attached to the bioactive surface of microtiter plates serves as the basis to evaluate enzyme activity. After an incubation period, the amount of phosphate transferred is measured by first washing the plate with 0.5% phosphoric acid, adding liquid scintillant, and then counting in a liquid scintillation detector. The IC50 is determined by the concentration of compound that causes a 50% reduction in the amount of […] incorporated onto the substrate bound to the plate.
# c-Met = biological target: T7, c-Met (Homo sapiens, UniProt P08581); assay: Kinase inhibition assay (33P transfer), c-Met; conditions: Table 2, kinase inhibition class; read-out: Met-1
# T7 construct: Kinases are expressed as either kinase domains or full length constructs; made in house
# T7 sequence (P08581 25-1390): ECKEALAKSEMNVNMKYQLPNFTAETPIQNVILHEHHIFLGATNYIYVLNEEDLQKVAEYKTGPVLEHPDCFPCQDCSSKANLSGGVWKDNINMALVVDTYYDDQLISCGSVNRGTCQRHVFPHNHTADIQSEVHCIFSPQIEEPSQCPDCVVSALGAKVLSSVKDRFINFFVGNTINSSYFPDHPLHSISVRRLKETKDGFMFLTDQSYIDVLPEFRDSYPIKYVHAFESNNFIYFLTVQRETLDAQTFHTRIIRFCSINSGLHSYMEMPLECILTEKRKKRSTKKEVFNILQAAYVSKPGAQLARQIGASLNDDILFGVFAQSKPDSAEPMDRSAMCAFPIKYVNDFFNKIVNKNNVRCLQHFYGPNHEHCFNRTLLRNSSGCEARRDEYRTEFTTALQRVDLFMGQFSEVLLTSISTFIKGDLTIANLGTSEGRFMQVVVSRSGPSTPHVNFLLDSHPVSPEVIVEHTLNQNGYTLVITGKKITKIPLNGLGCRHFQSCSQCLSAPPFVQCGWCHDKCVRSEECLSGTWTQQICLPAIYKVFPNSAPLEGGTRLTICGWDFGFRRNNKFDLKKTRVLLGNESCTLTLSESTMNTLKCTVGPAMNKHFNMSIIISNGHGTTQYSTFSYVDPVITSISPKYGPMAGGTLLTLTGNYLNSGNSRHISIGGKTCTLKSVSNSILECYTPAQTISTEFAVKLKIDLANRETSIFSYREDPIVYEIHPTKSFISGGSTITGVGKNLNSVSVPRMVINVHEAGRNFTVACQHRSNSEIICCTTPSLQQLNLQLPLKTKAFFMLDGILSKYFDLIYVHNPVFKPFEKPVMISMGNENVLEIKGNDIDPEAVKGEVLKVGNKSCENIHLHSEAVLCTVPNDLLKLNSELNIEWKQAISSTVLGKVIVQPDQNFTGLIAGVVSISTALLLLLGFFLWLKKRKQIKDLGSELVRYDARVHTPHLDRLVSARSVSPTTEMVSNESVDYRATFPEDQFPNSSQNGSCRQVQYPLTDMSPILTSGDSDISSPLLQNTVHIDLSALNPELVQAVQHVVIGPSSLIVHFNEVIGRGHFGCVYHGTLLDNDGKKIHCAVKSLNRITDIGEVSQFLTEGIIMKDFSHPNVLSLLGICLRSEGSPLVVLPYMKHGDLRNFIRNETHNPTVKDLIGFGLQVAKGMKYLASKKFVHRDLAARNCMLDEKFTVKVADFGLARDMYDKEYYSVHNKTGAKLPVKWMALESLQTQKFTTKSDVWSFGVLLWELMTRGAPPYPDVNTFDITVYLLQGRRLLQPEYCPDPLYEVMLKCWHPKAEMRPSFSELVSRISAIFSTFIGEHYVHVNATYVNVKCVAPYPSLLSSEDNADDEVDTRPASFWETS
# Procedure, shortened: as §2
# AKT = biological target: T8, AKT (Homo sapiens, UniProt Q9Y243); assay: Kinase inhibition assay (33P transfer), AKT; conditions: Table 2, kinase inhibition class; read-out: AKT3-1
# T8 construct: Kinases are expressed as either kinase domains or full length constructs; made in house
# T8 sequence (Q9Y243 whole entry, the tested form may be a part): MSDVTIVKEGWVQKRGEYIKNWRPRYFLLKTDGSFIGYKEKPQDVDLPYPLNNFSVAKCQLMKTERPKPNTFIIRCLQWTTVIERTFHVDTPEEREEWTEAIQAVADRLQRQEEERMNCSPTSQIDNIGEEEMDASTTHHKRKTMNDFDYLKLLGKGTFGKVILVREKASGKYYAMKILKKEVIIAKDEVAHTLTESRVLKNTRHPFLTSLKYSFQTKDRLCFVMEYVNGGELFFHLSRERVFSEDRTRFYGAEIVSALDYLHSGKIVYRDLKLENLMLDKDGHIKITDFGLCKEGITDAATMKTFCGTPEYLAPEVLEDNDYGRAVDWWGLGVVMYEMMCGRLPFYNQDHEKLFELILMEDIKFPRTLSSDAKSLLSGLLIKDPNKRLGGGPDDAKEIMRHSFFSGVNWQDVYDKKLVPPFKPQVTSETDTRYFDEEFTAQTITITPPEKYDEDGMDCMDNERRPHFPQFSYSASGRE
# Procedure, shortened: as §1
# T1 sequence (P06239 whole entry, species assumed, the tested form may be a part): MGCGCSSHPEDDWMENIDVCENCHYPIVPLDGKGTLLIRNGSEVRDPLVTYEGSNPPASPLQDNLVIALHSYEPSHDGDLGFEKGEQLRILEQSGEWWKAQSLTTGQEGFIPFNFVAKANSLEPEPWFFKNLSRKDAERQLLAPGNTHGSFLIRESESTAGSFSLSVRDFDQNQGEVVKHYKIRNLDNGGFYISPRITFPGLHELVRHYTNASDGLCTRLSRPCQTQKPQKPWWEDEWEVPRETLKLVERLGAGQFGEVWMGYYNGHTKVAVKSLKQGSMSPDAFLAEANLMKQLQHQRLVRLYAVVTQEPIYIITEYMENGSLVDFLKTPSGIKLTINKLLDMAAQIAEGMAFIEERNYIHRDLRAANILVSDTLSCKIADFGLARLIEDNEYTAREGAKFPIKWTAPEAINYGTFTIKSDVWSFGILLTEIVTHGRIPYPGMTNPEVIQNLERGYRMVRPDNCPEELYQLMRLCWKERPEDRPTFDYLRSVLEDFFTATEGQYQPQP
IC50 (Lck; Table 3) [µM],IC50 (Zap-70; Table 3) [µM],IC50 (Itk; Table 3) [µM],IC50 (EGFR) [µM],IC50 (Kdr; Table 3) [µM],IC50 (Tek) [µM],IC50 (c-Met) [µM],IC50 (AKT) [µM],IC50 (Lck) [µM],IC50 (Zap-70) [µM],IC50 (Itk) [µM],IC50 (Kdr) [µM],SMILES
6.61 to 8.5,> 8.5,> 8.5,> 8.5,0.755 to 4.53,> 8.5,> 8.5,6.61 to 8.5,–,–,–,–,COc1cc(Nc2nc3ccccc3n2-c2ncnc(Nc3cc(OC)c(OC)c(OC)c3)n2)cc(OC)c1 [Compound 399]
–,–,–,> 10.9,–,> 10.9,> 10.9,> 10.9,> 10.9,> 10.9,> 10.9,0.972 to 5.83,COc1cc(Nc2ncnc(-c3cccnc3NCCCN)n2)cc(OC)c1OC [Compound 1078]
6.07 to 8.85,> 11.4,> 11.4,> 11.4,1.01 to 6.07,> 11.4,> 11.4,> 11.4,–,–,–,–,COc1cc(Nc2ncnc(-n3ccc4ccc(F)cc43)n2)cc(OC)c1OC [Compound 464]
–,–,–,> 12.6,–,> 12.6,> 12.6,> 12.6,> 12.6,> 12.6,> 12.6,> 12.6,Nc1nc2ccccc2n1-c1ncnc(N2C(=O)c3ccccc3C2=O)n1 [Compound 653]
> 11.1,> 11.1,8.63 to 11.1,0.987 to 5.92,0.987 to 5.92,> 11.1,0.987 to 5.92,> 11.1,–,–,–,–,CCOC(=O)Cc1ccc(Nc2ncnc(Nc3cc(-c4ccco4)n[nH]3)n2)cc1 [Compound 432]
–,–,–,6.59 to 9.61,–,> 12.4,> 12.4,> 12.4,6.59 to 9.61,> 12.4,> 12.4,< 1.1,COc1ccc(Nc2ncnc(-n3c(=O)[nH]c4ccccc43)n2)cc1OC [Compound 494]
–,–,–,> 13,–,> 13,> 13,> 13,> 13,> 13,> 13,10.1 to 13,COc1cc(Nc2ncnc(NN3CCCC3)n2)cc(OC)c1OC [Compound 1002]
> 11.3,> 11.3,> 11.3,> 11.3,> 11.3,> 11.3,> 11.3,> 11.3,–,–,–,–,COc1cc(Nc2ncnc(N[C@@H](CO)c3ccccc3)n2)cc(OC)c1OC [Compound 427]
–,–,–,0.881 to 5.29,–,> 9.91,0.881 to 5.29,> 9.91,5.29 to 7.71,> 9.91,> 9.91,7.71 to 9.91,COc1cc(Nc2ncnc(Nc3cc(-c4cccc(Cl)c4)n[nH]3)n2)cc(OC)c1OC [Compound 495]
–,–,–,0.892 to 5.35,–,5.35 to 7.8,5.35 to 7.8,> 10,0.892 to 5.35,> 10,5.35 to 7.8,0.892 to 5.35,CC(C)(C)OC(=O)NCc1cccc(Nc2ncnc(Nc3cc(-c4ccco4)n[nH]3)n2)c1 [Compound 985]
–,–,–,1.09 to 6.53,–,> 12.2,9.53 to 12.2,1.09 to 6.53,> 12.2,> 12.2,9.53 to 12.2,> 12.2,CC(C)(C)c1cc(Nc2ncnc(Nc3ccc(CC(=O)O)cc3)n2)[nH]n1 [Compound 980]
–,–,–,8.78 to 11.3,–,8.78 to 11.3,> 11.3,> 11.3,1 to 6.02,> 11.3,8.78 to 11.3,< 1,COc1ccc(-c2ncnc(Nc3cc(OC)c(OC)c(OC)c3)n2)cc1OC [Compound 230]
> 16.2,> 16.2,> 16.2,> 16.2,> 16.2,> 16.2,> 16.2,–,–,–,–,–,"COc1cc(Nc2ncnc(N)n2)cc(OC)c1OC [Compound 1024, N-(3,4,5-trimethoxy-phenyl)-[1,3,5]triazine-2,4-diamine]"
–,–,–,0.829 to 4.97,–,7.25 to 9.33,> 9.33,> 9.33,0.829 to 4.97,> 9.33,4.97 to 7.25,0.829 to 4.97,COc1cc(Nc2ncnc(Nc3cccc(NC(=O)O[C@@H]4CCOC4)c3)n2)cc(OC)c1OC [Compound 694]
–,–,–,> 9.03,–,> 9.03,> 9.03,> 9.03,> 9.03,> 9.03,> 9.03,> 9.03,COc1cc(Nc2ncnc(-n3c(NCc4ncccc4C)nc4ccccc43)n2)cc(OC)c1OC [Compound 941]
–,–,–,> 10.9,–,> 10.9,> 10.9,> 10.9,8.49 to 10.9,> 10.9,> 10.9,< 0.97,COc1cc(Nc2ncnc(-c3ccc(NCCCO)nc3)n2)cc(OC)c1OC [Compound 497]
–,–,–,> 19.8,–,> 19.8,> 19.8,1.76 to 10.6,> 19.8,> 19.8,10.6 to 15.4,1.76 to 10.6,Nc1ncnc(-n2c(N)nc3ccccc32)n1 [Compound 646]
–,–,–,> 9.04,–,> 9.04,7.03 to 9.04,> 9.04,0.804 to 4.82,> 9.04,> 9.04,< 0.804,COc1cc(Nc2ncnc(-n3c(N[C@H](C)c4ccccc4)nc4ccccc43)n2)cc(OC)c1OC [Compound 1034]
–,–,–,0.958 to 5.75,–,0.958 to 5.75,> 10.8,> 10.8,5.75 to 8.38,0.958 to 5.75,> 10.8,0.958 to 5.75,O=c1[nH]c2ccccc2n1-c1ncnc(Nc2ccc(Br)c(Cl)c2)n1 [Compound 483]
> 16.7,> 16.7,> 16.7,> 16.7,> 16.7,> 16.7,> 16.7,–,–,–,–,–,Nc1ncnc(Nc2ccc(C3CCCCC3)cc2)n1 [Compound 1021]
